Measurements from ChEMBL document CHEMBL1146947, “Synthesis and ocular effects of imidazole nitrolic acid and amidoxime esters” (Bioorg Med Chem Lett, 2006).
Active and inactive are the calls of the source. The calls are words filed in the database; no cut-off is given here.

Experiments:
[1] = biological target: T1, Soluble guanylate cyclase (Homo sapiens) (UniProt Q02153+O75343+P33402+Q02108); assay: Effect on cGMP production in porcine iris-ciliary body at 10 uM; assay type: functional; settings: Sus scrofa, target entry is the homologue from another species
[2] = biological target: T1, Soluble guanylate cyclase (Homo sapiens); assay: Effect on cGMP production in porcine iris-ciliary body at 100 uM; assay type: functional; settings: Sus scrofa, target entry is the homologue from another species
[3] = system: Oryctolagus cuniculus; assay: Lowering of intraocular pressure in rabbit eye at 10 mM administered topically; assay type: functional, organism-based
[4] = species on record: Oryctolagus cuniculus; assay: Lowering of intraocular pressure in rabbit eye intravitreally injected with 10 mM; assay type: functional, organism-based

Activity [1] [pmol/mg]	Activity [2] [pmol/mg]	SMILES	Activity [3]	Activity [4]
0.63	0.24	Cn1cncc1C(=N)NOC(=O)C(C)(C)C	inactive	–
0.23	0.24	CCCC(=O)ONC(=N)c1cncn1C	inactive	–
0.36	0.73	CC(C)(C)C(=O)O/N=C(/c1c[nH]cn1)[N+](=O)[O-]	inactive	–
0.5	0.38	CCCC(=O)O/N=C(/c1c[nH]cn1)[N+](=O)[O-]	inactive	–
–	–	CC(=O)ONC(=N)c1cncn1C	inactive	inactive
0.45	0.78	CC(=O)O/N=C(/c1c[nH]cn1)[N+](=O)[O-]	inactive	–
